In publication PMC8036666, “Biological and Physico-Chemical Characteristics of Arginine-Rich Peptide Gemini Surfactants with Lysine and Cystine Spacers” (International Journal of Molecular Sciences, 2021):

Assay: in vitro
Details: human, 25% (v/v) normal human serum
Experimental: Serum stability of peptides B7 and C7 was tested in normal human serum (Sigma-Aldrich, Steinheim, Germany) according to the modified Jenssen and Aspmo protocol. Briefly, compounds were incubated in 25% (v/v) human serum solution in RPMI-1640 (Sigma-Aldrich, Steinheim, Germany) at 37 ± 0.1 °C. The final compound concentration was 50 µg/mL. Time intervals were 0, 1, 2, 3, 4, and 5 h. To precipitate serum proteins, 100 µL of solution was added to 200 µL of 96% ethanol (Pure P.A., POCH, Avantor Performance Materials S.A, Gliwice, Poland) and incubated at 4 °C before centrifugation (4 °C, 18,000× g, 2 min; Sorvall ST 16R Centrifuge, Thermo Scientific, Osterode am Harz, Germany). Subsequently, 200 µL of supernatant was transferred to glass vials (1.5 mL, Anchem, Poland), and the liquid was evaporated under nitrogen at 37 °C (approximately 30 min). The vials were lyophilized for 24 h to remove traces of solvents.
The influence of serum matrix on calibration curves was eliminated by the preparation of a series of vials with residual substances from serum. Briefly, ethanol was added to serum solution to precipitate proteins. Subsequently, the precipitate was centrifuged, and the supernatant was collected and evaporated to dryness as described above. Standards of the analyzed compounds were prepared in demineralized water in concentration ranging from 1 to 15 ppm. Next, 333 µL of solutions were moved to vials containing residual matrix substances (blank, without surfactant). Similarly, samples obtained after serum stability experiments were dissolved in 333 µL of demineralized water and analyzed. Analyses were performed using UPLC-HRMS. The mobile phase contained deionized water (solvent A) and acetonitrile (solvent B; ACN for HPLC-gradient grade; POCH, Avantor, Gliwice, Poland) both supplemented with a 0.1% (v/v) formic acid (Sigma-Aldrich, Steinheim, Germany).
The quantification of lipopeptides was performed using an Agilent 1290 Infinity chromatograph and Agilent 6550 Quadrupole Time-of-flight (Q-TOF) high-resolution mass spectrometer (HRMS). Gradient LC analyses were conducted using a ZORBAX Eclipse Plus C18 column (Rapid Resolution HD, 2.1 × 50 mm, 1.8 µm) and mobile phases: A—water containing 0.3% of acetonitrile and B—acetonitrile, both with 0.1% (v/v) formic acid. […] The mass detector equipped with an ESI source in HRMS mode was set in scanning mode 100–1700 m/z range in positive ionization. Chromatograms for a desired m/z value were extracted, and calibration curves were prepared using Mass Hunter software. All standards and serum samples were subjected to LC-MS analysis, and all analyses were performed in triplicate. Calibration curves were prepared for chromatograms extracted for m/z values corresponding to mono-, di-, tri- and tetra-charged ions. For analysis of peptide C7, a pseudomolecular ion [M+H]^+ (m/z 1227.8017) was selected, while for the other peptide B7, triple charged ion [M+3H]^3+ (m/z 378.9606).

Structure (SMILES) | remaining at 0 h, 50 µg/mL [%] | remaining at 1 h, 50 µg/mL [%] | remaining at 2 h, 50 µg/mL [%] | remaining at 3 h, 50 µg/mL [%] | remaining at 4 h, 50 µg/mL [%] | remaining at 5 h, 50 µg/mL [%]
CCCCCCC(CCCC)C(=O)N[C@@H](CCCNC(=N)N)C(=O)N[C@@H](CCCNC(=N)N)C(=O)NCCCC[C@H](NC(=O)[C@H](CCCNC(=N)N)NC(=O)[C@H](CCCNC(=N)N)NC(=O)C(CCCC)CCCCCC)C(N)=O (stereo partly drawn) [Compound B7] | 100 ± 2.4 | 94.3 ± 1.8 | 87.3 ± 1.7 | 83.1 ± 1.6 | 80.1 ± 1.2 | 63.2 ± 2.9
CCCCCCC(CCCC)C(=O)N[C@@H](CCCNC(=N)N)C(=O)N[C@@H](CCCNC(=N)N)C(=O)N[C@@H](CSSC[C@H](NC(=O)[C@H](CCCNC(=N)N)NC(=O)[C@H](CCCNC(=N)N)NC(=O)C(CCCC)CCCCCC)C(N)=O)C(N)=O (stereo partly drawn) [Compound C7] | 100 ± 1.1 | 92.2 ± 2.1 | 82.5 ± 1.3 | 79.2 ± 1.6 | 72.8 ± 3 | 59.4 ± 1
